# Assay results as given in article PMC12871559, “A general model for analysis of linear and hyperbolic enzyme inhibition mechanisms” (FEBS Open Bio, 2025).
# Columns and labels:
# Experiment in all cases: initial rates of NPβglc hydrolysis at […] nm, Lineweaver-Burk replots
# Type in all cases: biochemical
# Sfβgly [1] = target: T1, Sfβgly (Spodoptera frugiperda, UniProt O61594, S247Y)
# T1 construct: only point mutants assayed here
# Sfβgly [2] = target: T2, Sfβgly (Spodoptera frugiperda, UniProt O61594, N249Q)
# T2 construct: only point mutants assayed here
# Sfβgly [3] = target: T3, Sfβgly (Spodoptera frugiperda, UniProt O61594, F251A)
# T3 construct: only point mutants assayed here
# Sfβgly [4] = target: T4, Sfβgly (Spodoptera frugiperda, UniProt O61594, N249A)
# T4 construct: only point mutants assayed here
# T4 sequence (O61594 17-509 limits assumed, stated change not applied): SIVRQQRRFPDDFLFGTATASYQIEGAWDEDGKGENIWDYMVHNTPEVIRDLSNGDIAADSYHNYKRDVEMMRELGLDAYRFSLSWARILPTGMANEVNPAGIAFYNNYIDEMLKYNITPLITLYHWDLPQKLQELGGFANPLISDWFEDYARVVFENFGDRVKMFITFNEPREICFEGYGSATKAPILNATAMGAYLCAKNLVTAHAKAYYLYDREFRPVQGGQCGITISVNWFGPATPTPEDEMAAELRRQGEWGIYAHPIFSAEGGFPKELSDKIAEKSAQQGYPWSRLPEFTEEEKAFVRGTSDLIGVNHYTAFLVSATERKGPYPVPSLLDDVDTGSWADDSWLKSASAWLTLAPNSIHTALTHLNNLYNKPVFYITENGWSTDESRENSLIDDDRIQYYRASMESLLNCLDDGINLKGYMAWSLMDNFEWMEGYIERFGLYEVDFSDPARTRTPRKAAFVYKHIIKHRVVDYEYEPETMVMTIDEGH
# T1 sequence (O61594 17-509 limits assumed, stated change not applied): as above
# T2 sequence (O61594 17-509 limits assumed, stated change not applied): as above
# T3 sequence (O61594 17-509 limits assumed, stated change not applied): as above
structure (smiles),measurement,setting,value
"NC(CO)(CO)CO [Tris, 2‐amino‐2‐(hydroxymethyl)‐1,3‐propanediol]",Ki,Sfβgly [1],71 mM
same,Ki,Sfβgly [2],32 mM
same,Ki,Sfβgly [3],10 mM
same,Ki,Sfβgly [4],0.6 mM
c1c[nH]cn1 [imidazole],Ki,Sfβgly [1],35 mM
same,Ki,Sfβgly [2],39 mM
same,Ki,Sfβgly [3],12 mM
same,Ki,Sfβgly [4],18 mM
